From paper PMC11791976, “CDC20‐Mediated Selective Autophagy Degradation of PBRM1 Affects Immunotherapy for Renal Cell Carcinoma” (Advanced Science, 2024)
Where a SMILES comes first, the peptide text is derived from it. The star is where a group is joined. Cbz = O=C(OCc1ccccc1)*

System: PBRM1
Experiment: Immunoblot of PBRM1 / CDC20 protein level in cells treated with tool compounds
Assay type: cell-based
Conditions: for CDC20 protein level / PBRM1 protein level: cell cycle block, 24 h, Figure S1J,K
Experimental: Figure 3 Autophagy selectively degrades PBRM1 via the autophagic receptor p62 in a CDC20‐dependent manner. A) IB analysis of WCL lysates derived from WT or CDC20 knockdown 786‐O and 769‐P cells treated with NH4Cl (20 mM, 24 h) before harvesting. B) IB analysis of WCL lysates derived from 786‐O and 769‐P cells treated with NH4Cl (20 mM) for indicated hours. C) IB analysis of WCL lysates derived from 786‐O and 769‐P cells treated with chloroquine (CQ, 50 µM) for indicated hours. D) IB analysis of WCL lysates derived from 786‐O and 769‐P cells treated with glucose starvation (G.S.) for indicated hours. E) IB analysis of WCL lysates derived from 786‐O and 769‐P cells treated with serum starvation (S.S.) for indicated hours. F) IB analysis of WCL lysates derived from wild‐type (WT) or ATG5 knockdown 786‐O and 769‐P cells treated with serum starvation (S.S.) for indicated hours before harvesting. G) IB analysis of WCL and anti‐HA immunoprecipitates derived from 293T cells transfected with HA‐p62 and V5‐PBRM1. H) IB analysis of WCL and anti‐Flag immunoprecipitates derived from 293T cells transfected with Flag‐p62 and V5‐PBRM1. I) IB analysis of WCL lysates derived from shScr or p62 knockdown 786‐O and 769‐P cells using shRNA. J) IB analysis of WCL lysates derived from NC or p62 knockdown 786‐O cells using siRNA. NC, negative control. K,L) Immunoblotting analysis (K) and quantification (L) of cell lysates of WT and p62 knockdown 786‐O cells treated with cycloheximide (CHX, 20 µg ml^−1) at indicated time points. M) IB analysis of WCL and GST‐pull‐down products derived from 293T cells transfected with GST‐p62 and V5‐PBRM1. 24 h post transfection, cells were treated with serum starvation (S.S.) for 24 h before harvesting the cells. N) IB analysis of WCL and GST‐pull‐down products derived from 293T cells transfected with GST‐p62, HA‐CDC20 and V5‐PBRM1. O) IB analysis of WCL and GST‐pull‐down products derived from WT and CDC20 knockdown 293T cells transfected with GST‐p62 and V5‐PBRM1. P) Schematic representation of truncated constructs of p62 for mapping the interaction domain with PBRM1. Q) IB analysis of WCL and GST‐pull‐down products derived from 293T cells transfected with V5‐PBRM1 and indicated constructs of GST‐p62 plasmids. R) Schematic representation of truncated constructs of p62 for mapping the interaction domain with PBRM1. S) IB analysis of WCL and GST‐pull‐down products derived from 293T cells transfected with V5‐PBRM1 and indicated constructs of GST‐p62 plasmids.
Cells were washed 3 times with ice‐cold phosphate‐buffered saline (PBS). The appropriate RIPA or IP buffer was added, which was mixed with protease and phosphatase inhibitors in advance. After centrifugation, the cell lysate supernatant was collected and checked using the BCA qualification system. The appropriate protein‐loading buffer was added to the protein lysates and denatured in a boiling water bath for 5 min. Each sample contained 30 µg protein, which was loaded onto 8% or 10% SDS‐PAGE gels and transferred to a polyvinylidene fluoride (PVDF) membrane. Then, the PVDF membranes were […] in fresh milk for 1 h at room temperature. Primary antibodies of the targets were added to the PVDF membranes and incubated overnight at 4 °C. The cells were rinsed 3 times with TBST buffer, followed by incubation with peroxidase‐conjugated antibodies at room temperature for 1 h. After washing, the PVDF membranes were analyzed and visualized using an ECL system (Bio‐Rad, Hercules, CA, USA).
Supplementary Figure 1. PBRM1 fluctuates during cell cycle progression. (A) IB analysis of WCL and anti-HA immunoprecipitates derived from 293T cells transfected with HA-CDC20 and Flag-PBRM1. (B) Schematic representation of truncated constructs of CDC20 for mapping the interaction domain with PBRM1. (C) IB analysis of WCL and GST-pull-down products derived from 293T cells transfected with Flag-PBRM1 and indicated constructs of GST-CDC20. Vec, vector. […]

[1] = 786-O and 769-P cells, NH4Cl 20 mM, chloroquine 50 µM, indicated hours

| Compound | protein level of PBRM1 (renca and 786-O cells, MG132 10 μM 12 hours, Figure S5O) | protein level of PBRM1 [1] | CDC20 protein level (786-O and 769-P cells) | PBRM1 protein level (786-O and 769-P cells) |
| --- | --- | --- | --- | --- |
| CC(C)C[C@@H](C=O)NC(=O)[C@H](CC(C)C)NC(=O)[C@H](CC(C)C)NC(=O)OCc1ccccc1 [MG132] (Cbz-Leu-Leu-Leu-aldehyde) | enhance the protein level of PBRM1 | – | – | – |
| Cl.N [NH4Cl, ammonium chloride] | – | increased | – | – |
| CCN(CC)CCCC(C)Nc1ccnc2cc(Cl)ccc12 (stereo not shown) [chloroquine] | – | upregulated | – | – |
| COC(=O)Nc1nc2ccc(C(=O)c3cccs3)cc2[nH]1 [nocodazole] | – | – | decreased | upregulated |
| CC(=O)O[C@H]1C(=O)[C@@]2(C)[C@H]([C@H](OC(=O)c3ccccc3)[C@]3(O)C[C@H](OC(=O)[C@H](O)[C@@H](NC(=O)c4ccccc4)c4ccccc4)C(C)=C1C3(C)C)[C@]1(OC(C)=O)CO[C@@H]1C[C@@H]2O [taxol, paclitaxel] | – | – | decreased | upregulated |
